This note sets out measurements from US6358946B1, “C-6 ring-substituted pyrido[1,2-a]benzimidazole derivatives useful in treating central nervous system disorders” (Ortho-McNeil Pharmaceutical, Inc., priority 1999, dated 2002).

Structures are written as SMILES. Structures can show the parent of a compound that is named as a salt. Where two headings read alike, the source gives them in different places.

The subject of data set [1] is behavior suppressed by punishment (conflict). The data set can be described thus: Suppression of anxiety in the adult male rat (Vogel conflict test). The data set is classed as in vivo, Male rats. Conditions: PO (oral) administration, MED >10 = active dose not determined, read-out: Conf. PO (minimum effective dose, MED). The method, then: Assay to Measure the Suppression of Anxiety in the Adult Male Rat
The anxiolytic activity of selected compounds of the invention was assessed by determining their ability to release (disinhibit) behavior that had been suppressed by punishment (Vogel, J. R. et al. Psychopharmacology 1971, 21, 1). Male rats were deprived of water for 48 hrs and were deprived of food for 24 hrs prior to testing. After the first 24 hours of water deprivation, they were placed in the conflict chamber for a training period; wherein, they were allowed 200 unpunished licks from a bottle containing tap water. The experiment was run the next day. At the expected time of peak activity, the animals were placed in the chamber and allowed access to tap water. […] Their first lick initiates a 3-min test session. Subsequently, every 20th lick was punished by a 0.2-s shock delivered via the stainless-steel drinking-tube. Vehicle-treated control animals generally were willing to accept a median number of 3 to 8 shocks per test session. […] The Wilcoxon rank-sum test (Mann-Whitney U-test) was used to test for an increase (p<0.05, 1-tailed) in the median number of shocks in drug-treated groups, compared to a concurrently run vehicle-treated group. The biological assay is considered to be valid if the effects of a known anxiolytic (positive control) are detected, within the same experiment. A compound was considered active if there is a significant difference in the median number of shocks tolerated between the drug-treated group and the control group. The minimum effective doses (MED) for the active compounds of the invention are listed in Table 1 under the heading Conf., with PO indicating an oral route of administration. The MED was defined as the minimum dose of the drug-treatment as analyzed using the Wilcoxon rank-sum test (SAS; Statistical Analysis System, version 5.16). If the MED value is greater than 10, an active dose of the compound being tested had not been determined.

Data set [2] concerns the target benzodiazepine site of the GABA-A receptor. The data set can be described thus: Benzodiazepine receptor binding assay (inhibition of 3H-flunitrazepam binding to membranes). Conditions: inhibition of 3H-flunitrazepam (ca. 3 nM) binding; over 10,000 = not active.
The subject of data set [3] is metrazol-induced clonic convulsions. Kind of data set: Suppression of metrazol-induced convulsions in adult male mice. The data set is classed as in vivo, Male CD1 mice. Conditions: Mus musculus, block of clonic convulsions after s.c. CD90 dose of metrazol. The procedure:
Assay to Determine the Suppression of Metrazol-Induced Convulsions in Adult Male Mice
Compounds of the invention were tested for their ability to reduce metrazol-induced convulsions in mice (Swinyard, E. A. J. Am. Pharm Assoc. 1949, 38, 201). Male CD1 mice, were fasted at least 16 hours, were divided into equal groups and test compounds or vehicle were administered parenterally. Water was not withheld except during the period of observations. At the time of suspected peak activity, anti-pentylenetetrazol (anti-metrazol) activity was evaluated by the subcutaneous administration of the CD90 dose of metrazol (the dose of metrazol was determined from the dose-response curve producing clonic convulsions in 90% of animals that received the corresponding vehicle for this experiment). Metrazol was dissolved in 0.9% sodium chloride solution, and its dose volume was 10 mL/kg. Animals were housed individually for observation of clonic convulsions, tonic convulsions and death for a period of 30 min. Test compounds that blocked the clonic seizure component of the convulsion in at least 50% of the animals were considered active. The biological assay was considered to be valid if the effects of a known anticonvulsant (positive control) were detected, within the same experiment. Activity was reported as percent reduction of clonic convulsions from the vehicle group. The ED50 values of active compounds were calculated by the method of probits (Finney, D. J. Probit Analysis, London: 1971, Cambridge University Press) and are listed in Table 1. […] Compounds active in this screen are considered active anticonvulsion/antiepileptic agents, as well as having potential anxiolytic activity. The data for the test compounds is listed in Table 1 as Met. for either PO (oral) or IP (parenteral) routes of administration.

The mark [4] stands for this setting: IP (parenteral) administration, read-out: Met. IP (ED50).
Setting [5] is: PO (oral) administration, read-out: Met. PO (ED50).

In the case of `CN1C2=C(C(=O)Nc3nccs3)C(=O)CCN2c2cccc(-n3ccnc3)c21` [Compound 16], the minimal effective dose in data set [1] was over 3 mg/kg. The molecule also yielded an IC50 in data set [2] of 2.12 nM.

Consider `CN1C2=C(C(=O)Nc3ccccc3F)C(=O)CCN2c2cccc(N3CCC4(CC3)OCCO4)c21` [Compound 21, Pyrido[1,2-a]benzimidazole-4-carboxamide, N-2-fluorophenyl-1,2,3-trihydro-3-oxo-5-methyl-6-[8-(1,4-dioxa-8-azaspiro[4,6]decanyl)]-], for which, in data set [1], the minimal effective dose is at most 0.3 mg/kg. In data set [2], this molecule showed an IC50 of 0.13 nM.

Turning to `O=C1CCN2C(=C1C(=O)Nc1ccccc1F)Nc1c(N3CCOCC3)cccc12` [Compound 3], the ED50 in data set [3] (setting [4]) is over 1 mg/kg; in data set [3] (setting [5]), 3 mg/kg. Further, the minimal effective dose in data set [1] is over 10 mg/kg. The molecule also showed an IC50 in data set [2] of 1.05 nM.

For the molecule `COc1ccccc1N1CCN(c2cccc3c2NC2=C(C(=O)Nc4c(F)cccc4F)C(=O)CCN23)CC1` [Compound 5], the minimal effective dose in data set [1] is over 10 mg/kg. The same molecule returned an IC50 in data set [2] of under 100 nM.

In the case of `COCC(=O)N1CCN(c2cccc3c2N(C)C2=C(C(=O)Nc4ccccc4F)C(=O)CCN23)CC1` [Compound 22, Pyrido[1,2-a]benzimidazole-4-carboxamide, N-2-fluorophenyl-1,2,3-trihydro-3-oxo-5-methyl-6-[4-(2-methoxyacetyl)-1-piperazinyl]-], the minimal effective dose in data set [1] was over 3 mg/kg. This molecule also displayed an IC50 in data set [2] of 0.24 nM.

For the molecule `O=C1CCN2C(=C1C(=O)Nc1ccccc1F)Nc1c(N3CCC4(CC3)OCCO4)cccc12` [Compound 20, Pyrido[1,2-a]benzimidazole-4-carboxamide, N-2-fluorophenyl-1,2,3,5-tetrahydro-3-oxo-6-[8-(1,4-dioxa-8-azaspiro[4,5]decanyl)]-], the ED50 in data set [3] (setting [5]) came out at 0.83 mg/kg. Besides, the minimal effective dose in data set [1] came out at 3 mg/kg. The IC50 in data set [2] came to 1.11 nM.

With `O=C1CCN2C(=C1C(=O)Nc1ccccc1F)Nc1c(N3CCSCC3)cccc12` [Compound 14], the minimal effective dose in data set [1] was about 3 mg/kg. In data set [2], this molecule had an IC50 of 8.43 nM.

Consider `COc1ccc(NC(=O)C2=C3Nc4c(N5CCCCC5)cccc4N3CCC2=O)cc1` [Compound 11], for which, in data set [1], the minimal effective dose was over 3 mg/kg. The molecule also returned a half-maximal inhibitory concentration (IC50) in data set [2] of 34.8 nM.

In the case of `O=C1CCN2C(=C1C(=O)Nc1nccs1)Nc1c2cccc1-n1ccnc1` [Compound 17], in data set [1], the minimal effective dose was over 3 mg/kg. Further, the IC50 in data set [2] amounted to 160 nM.

In data set [2], `CN1C2=C(C(=O)Nc3ccccc3F)C(=O)CCN2c2cccc(N3CCOCC3)c21` [Compound 12] had an IC50 of 0.15 nM.

In the case of `O=C1CCN2C(=C1C(=O)Nc1c(F)cccc1F)Nc1c2cccc1-n1ccnc1` [Compound 1], the values for the 50% effective dose (ED50) in data set [3] (setting [4]) and in data set [3] (setting [5]) were at most 1 mg/kg and about 10 mg/kg, respectively. The molecule also showed an IC50 in data set [2] of 0.66 nM.

Take `CN1C2=C(C(=O)Nc3ccccc3F)C(=O)CCN2c2cccc(-n3ccnc3)c21` [Compound 13, Pyrido[1,2-a]benzimidazole-4-carboxamide, N-2-fluorophenyl-1,2,3-trihydro-3-oxo5-methyl-6-(1-imidazolyl)-]: in data set [1], the minimal effective dose is over 3 mg/kg. Besides, the IC50 in data set [2] stood at 0.13 nM.

For `O=C1CCN(c2cccc3c2NC2=C(C(=O)Nc4ccccc4F)C(=O)CCN23)CC1` [Compound 23], the minimal effective dose in data set [1] is at most 3 mg/kg.

`COc1ccccc1N1CCN(c2cccc3c2NC2=C(C(=O)Nc4ccccc4F)C(=O)CCN23)CC1` [Compound 6]: the minimal effective dose in data set [1] is over 10 mg/kg. In data set [2], this molecule came in with an IC50 of about 1000 nM.

Take `CN1C2=C(C(=O)Nc3ccccc3F)C(=O)CCN2c2cccc(N3CCSCC3)c21` [Compound 15]: the minimal effective dose in data set [1] worked out at 1 mg/kg. In addition, in data set [2], the IC50 stood at 0.23 nM.

As to `CN1C2=C(C(=O)Nc3ccccc3F)C(=O)CCN2c2cccc(N3CCCCC3)c21` [Compound 18], the ED50 in data set [3] (setting [5]) was found to be 0.65 mg/kg. Also, the minimal effective dose in data set [1] was 0.03 to 0.1 mg/kg. Besides, the IC50 in data set [2] was determined as 0.22 nM.

As for `O=C1CCN2C(=C1C(=O)Nc1ccccc1F)Nc1c2cccc1-n1ccnc1` [Compound 2, Pyrido[1,2-a]benzimidazole-4-carboxamide, N-2-fluorophenyl-1,2,3,5-tetrahydro-3-oxo-6-(1-imidazolyl)-], the ED50 in data set [3] (setting [4]) is 1 mg/kg; in data set [3] (setting [5]), about 5 mg/kg. Moreover, in data set [1], the minimal effective dose was over 10 mg/kg. The IC50 in data set [2] was determined as 3.48 nM.

In the case of `O=C1CCN2C(=C1C(=O)Nc1c(F)cccc1F)Nc1c(N3CCOCC3)cccc12` [Compound 4], the figures for the ED50 in data set [3] (setting [4]) and in data set [3] (setting [5]) were under 1 mg/kg and under 3 mg/kg, respectively. The minimal effective dose in data set [1] is about 0.1 mg/kg. For the same molecule, the IC50 in data set [2] was determined as 0.23 nM.

With `COc1cccc(NC(=O)C2=C3Nc4c(N5CCOCC5)cccc4N3CCC2=O)c1` [Compound 8], in data set [1], the minimal effective dose was over 10 mg/kg. Moreover, the half-inhibitory concentration (IC50) in data set [2] came out at 2.4 nM.

As to `O=C1CCN2C(=C1C(=O)Nc1c(F)cccc1F)Nc1c(N3CCCCC3)cccc12` (as salt: hydrochloride) [Compound 10, Pyrido[1,2-a]benzimidazole-4-carboxamide, N-(2,6-difluorophenyl)-1,2,3,5-tetrahydro-3-oxo-6-(1-piperidinyl)-], the melting point was in the range of 240 to 241 °C.

As for `O=C1CCN2C(=C1C(=O)Nc1c(F)cccc1F)Nc1c(N3CCCCC3)cccc12` [Compound 10, Pyrido[1,2-a]benzimidazole-4-carboxamide, N-(2,6-difluorophenyl)-1,2,3,5-tetrahydro-3-oxo-6-(1-piperidinyl)-], the ED50 in data set [3] (setting [5]) is 3.64 mg/kg. The minimal effective dose in data set [1] was determined as 3 mg/kg. The molecule further had an IC50 in data set [2] of 0.41 nM.

`O=C1CCN2C(=C1C(=O)Nc1ccccc1F)Nc1c(N3CCCCC3)cccc12` [Compound 9]: in data set [1], the minimal effective dose was at most 3 mg/kg. The molecule further yielded an IC50 in data set [2] of 69.5 nM.

Regarding `COc1ccc(NC(=O)C2=C3Nc4c(N5CCOCC5)cccc4N3CCC2=O)cc1` [Compound 7], in data set [1], the minimal effective dose worked out at 0.1 mg/kg. In addition, in data set [2], the IC50 came out at 2.04 nM.
